Measured values from patent publication US4546176A, “7-Carboxymethoxyphenylacetamido-3-cephem derivatives and antibacterial preparations containing the same” (Eisai Co., Ltd., priority 1982, dated 1985).
Values after ≈ are worked out from the molar mass of the structure shown.

What was measured:
Ser. marcescens ES-75 = assay: Antibacterial activities (MIC), Ser. marcescens ES-75; assay type: cell-based; settings: Serratia marcescens, ES75
Description: (§1) (1) Antibacterial activities (MIC):

Pseud. aeruginosa EP-01 = assay: Antibacterial activities (MIC), Pseud. aeruginosa EP-01; assay type: cell-based; settings: Pseudomonas aeruginosa, EP01
Description: as §1

Staph. aureus 209-P = assay: Antibacterial activities (MIC), Staph. aureus 209-P; assay type: cell-based; settings: Staphylococcus aureus
Description: as §1

Proteus morganii EP-14 = assay: Antibacterial activities (MIC), Proteus morganii EP-14; assay type: cell-based; settings: Morganella morganii, EP14
Description: as §1

Escher. coli NIHJ = assay: Antibacterial activities (MIC), Escher. coli NIHJ; assay type: cell-based; settings: Escherichia coli
Description: as §1

Kleb. pneumoniae EK-6 = assay: Antibacterial activities (MIC), Kleb. pneumoniae EK-6; assay type: cell-based; settings: Klebsiella pneumoniae, EK6
Description: as §1

[1] = Urinary excretion rate in mice; assay type: in vivo, ICR male mice; settings: mouse, sc, 20 mg/kg subcutaneous, urine up to 6 hours, bioassay
Description: ICR male mice (body weight: 20-30 g) were used. Each compound was dissolved in an M/15 phosphate buffer (pH 7.0) and administered in an amount of 20 mg/kg by the subcutaneous route. Urine was collected up to 6 hours after the administration. The concentration of the compound was determined by the bioassey technique (the agar-well method) using Pseudomonas aeruginosa as a test microorganism. On the basis of the thus-determined concentration, its excreted amount was obtained. The urinary excretion rate was then calculated from the excreted amount based on the amount administered.

| Compound | MIC (Ser. marcescens ES-75) [µg/mL] | MIC (Pseud. aeruginosa EP-01) [µg/mL] | MIC (Staph. aureus 209-P) [µg/mL] | MIC (Proteus morganii EP-14) [µg/mL] | MIC (Escher. coli NIHJ) [µg/mL] | MIC (Kleb. pneumoniae EK-6) [µg/mL] | dose excreted at 6 h [1] [%] |
| --- | --- | --- | --- | --- | --- | --- | --- |
| CC(=O)OCC1=C(C(=O)O)N2C(=O)[C@@H](NC(=O)[C@H](NC(=O)c3coc4cc(O)c(O)cc4c3=O)c3ccc(OCC(=O)O)cc3)[C@H]2SC1 [Example 1, 7β-[D-2-(4-Carboxymethoxyphenyl)-2-(6,7-dihydroxy-4-oxo-4H-1-benzopyran-3-carboxamido)-acetamido]-3-acetoxymethyl-3-cephem-4-carboxylic acid] | 0.2 (≈ 0.293 µM) | ≤ 0.05 | 25 (≈ 36.6 µM) | 6.25 (≈ 9.14 µM) | 0.2 (≈ 0.293 µM) | ≤ 0.05 |  |
| Cc1nnc(SCC2=C(C(=O)O)N3C(=O)[C@@H](NC(=O)[C@H](NC(=O)c4coc5cc(O)c(O)cc5c4=O)c4ccc(OCC(=O)O)cc4)[C@H]3SC2)s1 [Example 6, Disodium 7β-[D-2-(4-carboxymethoxyphenyl)-2-(6,7-dihydroxy-4-oxo-4H-1-benzopyran-3-carboxamido)-acetamido]-3-[5-methyl-2-(1,3,4-thiadiazolyl)]-thiomethyl-3-cephem-4-carboxylate] | 0.2 | ≤ 0.05 | 3.13 | 1.56 | 0.8 | ≤ 0.05 |  |
| Cn1nnnc1SCC1=C(C(=O)O)N2C(=O)[C@@H](NC(=O)[C@H](NC(=O)c3coc4c(O)c(O)ccc4c3=O)c3ccc(OCC(=O)O)cc3)[C@H]2SC1 [Example 9, 7β-[D-2-(4-Carboxymethoxyphenyl)-2-(7,8-dihydroxy-4-oxo-4H-1-benzopyran-3-carboxamido)acetamido]-3-(1-methyl-5-tetrazolyl)thiomethyl-3-cephem-4-carboxylic acid] | 0.2 (≈ 0.27 µM) | ≤ 0.05 | 25 (≈ 33.8 µM) | 1.56 (≈ 2.11 µM) | 0.4 (≈ 0.541 µM) | ≤ 0.05 |  |
| Cn1nnnc1SCC1=C(C(=O)O)N2C(=O)[C@@H](NC(=O)[C@H](NC(=O)c3cc4ccc(O)c(O)c4oc3=O)c3ccc(OCC(=O)O)cc3)[C@H]2SC1 [Example 10, 7β-[D-2-(4-Carboxymethoxyphenyl)-2-(7,8-dihydroxyphenyl)-2-(7,8-dihydroxy-2-oxo-2H-1-benzopyran-3-carboxamido)acetamido]-3-(1-methyl-5-tetrazolyl)-thiomethyl-3-cephem-4-carboxylic acid] | 0.1 (≈ 0.135 µM) | ≤ 0.05 | 12.5 (≈ 16.9 µM) | 3.13 (≈ 4.23 µM) | 0.4 (≈ 0.541 µM) | ≤ 0.05 |  |
| CCn1cc(C(=O)N[C@@H](C(=O)N[C@@H]2C(=O)N3C(C(=O)O)=C(CSc4nnnn4C)CS[C@H]23)c2ccc(OCC(=O)O)cc2)c(=O)c2cc(O)c(O)cc21 [Example 12, 7β-[D-2-(4-Carboxymethoxyphenyl)-2-(6,7-dihydroxy-1,4-dihydro-1-ethyl-4-oxoquinolin-3-carboxamido)-acetamido]-3-(1-methyl-5-tetrazolyl)thiomethyl-3-cephem-4-carboxylic acid] | ≤ 0.05 | 0.1 (≈ 0.13 µM) | 50 (≈ 65.2 µM) | 1.56 (≈ 2.03 µM) | 0.4 (≈ 0.522 µM) | ≤ 0.05 |  |
| CN(C)CCn1nnnc1SCC1=C(C(=O)O)N2C(=O)[C@@H](NC(=O)[C@H](NC(=O)c3coc4cc(O)c(O)cc4c3=O)c3ccc(OCC(=O)O)cc3)[C@H]2SC1 [Example 14, Disodium 7β-[D-2-(4-carboxymethoxyphenyl)-2-(6,7-dihydroxy-4-oxo-4H-1-benzopyran-3-carboxamido)-acetamido]-3-[1-(2-N,N-dimethylaminoethyl)-5-tetrazolyl]-thiomethyl-3-cephem-4-carboxylate] | 0.2 | 0.1 | 25 | 3.13 | 0.4 | ≤ 0.05 |  |
| CC(=O)Oc1ccc2c(=O)c(C(=O)N[C@@H](C(=O)N[C@@H]3C(=O)N4C(C(=O)O)=C(CSc5nnnn5CC(=O)O)CS[C@H]34)c3ccc(OCC(=O)O)cc3)coc2c1OC(C)=O [Example 16, 7β-[D-2-(4-carboxymethoxyphenyl)-2-(7,8-diacetoxy-4-oxo-4H-1-benzopyran-3-carboxamido)acetamido]-3-(1-carboxymethyl-5-tetrazolyl)thiomethyl-3-cephem-4-carboxylic acid] | 0.8 (≈ 0.922 µM) | 0.8 (≈ 0.922 µM) | 100 (≈ 115 µM) | 6.25 (≈ 7.2 µM) | 0.8 (≈ 0.922 µM) | 0.2 (≈ 0.23 µM) |  |
| CC(=O)OCC1=C(C(=O)O)N2C(=O)[C@@H](NC(=O)[C@H](NC(=O)c3coc4c(OC(C)=O)c(OC(C)=O)ccc4c3=O)c3ccc(OCC(=O)O)cc3)[C@H]2SC1 [Example 17, 7β-[D-2-(4-Carboxymethoxyphenyl)-2-(7,8-diacetoxy-4-oxo-4H-1-benzopyran-3-carboxamido)acetamido]-3-acetoxymethyl-3-cephem-4-carboxylic acid] | 1.56 (≈ 2.03 µM) | 0.8 (≈ 1.04 µM) | 50 (≈ 65.1 µM) | 12.5 (≈ 16.3 µM) | 0.8 (≈ 1.04 µM) | ≤ 0.05 |  |
| O=C(O)COc1ccc([C@@H](NC(=O)c2coc3c(O)c(O)ccc3c2=O)C(=O)N[C@@H]2C(=O)N3C(C(=O)O)=C(CSc4nnnn4CC(=O)O)CS[C@H]23)cc1 [Example 20, Trisodium 7β-[D-2-(4-carboxymethoxyphenyl)-2-(7,8-dihydroxy-4-oxo-4H-1-benzopyran-3-carboxamido)-acetamido]-3-(1-carboxymethyl-5-tetrazolyl)thiomethyl-3-cephem-4-carboxylate] | 0.8 | 0.8 | 100 | 6.25 | 0.8 | 0.1 | 16 |
| CC(=O)Oc1cc2oc(C)c(C(=O)N[C@@H](C(=O)N[C@@H]3C(=O)N4C(C(=O)O)=C(CSc5nnnn5CC(=O)O)CS[C@H]34)c3ccc(OCC(=O)O)cc3)c(=O)c2cc1OC(C)=O [Example 22, 7β-[D-2-(4-Carboxymethoxyphenyl)-2-(6,7-diacetoxy-2-methyl-4-oxo-4H-1-benzopyran-3-carboxamido)-acetamido]-3-(1-carboxymethyl-5-tetrazolyl)thiomethyl-3-cephem-4-carboxylic acid] | 0.1 (≈ 0.113 µM) | 0.2 (≈ 0.227 µM) | 100 (≈ 113 µM) | 3.13 (≈ 3.55 µM) | 0.2 (≈ 0.227 µM) | ≤ 0.05 |  |
| CC(=O)Oc1ccc2c(=O)c(C(=O)N[C@@H](C(=O)N[C@@H]3C(=O)N4C(C(=O)O)=C(CSc5nnnn5CC(=O)O)CS[C@H]34)c3ccc(OCC(=O)O)cc3)c(C)oc2c1OC(C)=O [Example 23, 7β-[D-2-(4-Carboxymethoxyphenyl)-2-(7,8-diacetoxy-2-methyl-4-oxo-4H-1-benzopyran-3-carboxamido)-acetamido]-3-(1-carboxymethyl-5-tetrazolyl)thiomethyl-3-cephem-4-carboxylic acid] | 0.8 (≈ 0.907 µM) | 0.8 (≈ 0.907 µM) | 100 (≈ 113 µM) | 6.25 (≈ 7.09 µM) | 0.4 (≈ 0.454 µM) | ≤ 0.05 |  |
| CC(=O)OCC1=C(C(=O)O)N2C(=O)[C@@H](NC(=O)[C@H](NC(=O)c3c(C)oc4cc(O)c(O)cc4c3=O)c3ccc(OCC(=O)O)cc3)[C@H]2SC1 [Example 29, Disodium 7β-[D-2-(4-carboxymethoxyphenyl)-2-(6,7-dihydroxy-2-methyl-4-oxo-4H-1-benzopyran-3-carboxamido)acetamido]-3-acetoxymethyl-3-cephem-4-carboxylate] | 0.4 | 0.2 | 50 | 12.5 | 0.4 | ≤ 0.05 |  |
| CCn1cc(C(=O)N[C@@H](C(=O)N[C@@H]2C(=O)N3C(C(=O)O)=C(COC(C)=O)CS[C@H]23)c2ccc(OCC(=O)O)cc2)c(=O)c2cc(O)c(O)cc21 [Example 35, Disodium 7β-[D-2-(4-carboxymethoxyphenyl)-2-(6,7-dihydroxy-1-ethyl-1,4-dihydro-4-oxoquinoline-3-carboxamido)acetamido]-3-acetoxymethyl-3-cephem-4-carboxylate] | 1.56 | 0.2 | 50 | 12.5 | 0.8 | ≤ 0.05 |  |
| CCOC(=O)Oc1cc2oc(C)c(C(=O)N[C@@H](C(=O)N[C@@H]3C(=O)N4C(C(=O)O)=C(COC(C)=O)CS[C@H]34)c3ccc(OCC(=O)O)cc3)c(=O)c2cc1OC(=O)OCC [Example 36] | 0.8 (≈ 0.95 µM) | 0.1 (≈ 0.119 µM) | 25 (≈ 29.7 µM) | 12.5 (≈ 14.8 µM) | 0.8 (≈ 0.95 µM) | ≤ 0.05 |  |
| CO[C@@]1(NC(=O)[C@H](NC(=O)c2c(C)oc3cc(O)c(O)cc3c2=O)c2ccc(OCC(=O)O)cc2)C(=O)N2C(C(=O)[O-])=C(C[n+]3ccc(C(N)=O)cc3)CS[C@@H]21 [Example 49, 7β-[D-2-(4-Carboxymethoxyphenyl)-2-(6,7-dihydroxy-2-methyl-4-oxo-4H-1-benzopyran-3-carboxamido)-acetamido]-7α-methoxy-3-(4-carbamoylpyridinium)-methyl-3-cephem-4-carboxylate] |  |  |  |  |  |  | 35 |
| CC(=O)Oc1cc2oc(C)c(C(=O)N[C@@H](C(=O)N[C@@H]3C(=O)N4C(C(=O)[O-])=C(C[n+]5ccc(C(N)=O)cc5)CS[C@H]34)c3ccc(OCC(=O)O)cc3)c(=O)c2cc1OC(C)=O [Example 56, 7β-[D-2-(4-Carboxymethoxyphenyl)-2-(6,7-diacetoxy-2-methyl-4-oxo-4H-1-benzopyran-3-carboxamido)acetamido]-3-(4-carbamoylpyridinium)methyl-3-cephem-4-carboxylate] | 0.8 (≈ 0.948 µM) | 0.2 (≈ 0.237 µM) | 25 (≈ 29.6 µM) | 6.25 (≈ 7.41 µM) | 0.8 (≈ 0.948 µM) | ≤ 0.05 |  |
